Values joined by “and” are separate entries in the source; they are usually repeats but may differ in a detail not shown here. Identical values can stand only once.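 How tested: cells in 96-well plates exposed to compound for 48 hours at five concentrations. GI50 is the concentration that inhibits growth by half. TGI: concentration producing complete growth inhibition.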
Key:
Test in all cases: NCI-60 cell line screen, 48 h
[1] = test system: A498 renal
[2] = test system: A549 NSCLC
[3] = test system: RXF 393 renal
[4] = test system: HCC-2998 colon
[5] = test system: OVCAR-8 ovarian
[6] = test system: SNB-75 CNS
[7] = test system: NCI-H522 lung
[8] = test system: UACC-257 melanoma
[9] = test system: MALME-3M melanoma
[10] = test system: RPMI-8226 leukemia

SMILES: CCOC(=O)C1=C(O)c2ccc(C)cc2C(=O)C1=O
- TGI [1]: > 100 µM
- TGI [2]: > 100 µM
- TGI [3]: > 100 µM
- TGI [4]: > 100 µM
- TGI [5]: > 100 µM
- TGI [6]: > 100 µM
- TGI [7]: > 100 µM
- TGI [8]: > 100 µM
- TGI [9]: > 100 µM
- TGI [10]: > 100 µM

SMILES: N#Cc1c(N)nc2c3c1NC(=O)C(C(N)=O)C3c1ccccc1O2 (stereo not drawn)
- TGI [1]: > 100 µM
- TGI [2]: > 100 µM
- TGI [3]: > 100 µM
- TGI [4]: > 100 µM
- TGI [5]: > 100 µM
- TGI [6]: > 100 µM
- TGI [7]: 70.6 µM
- TGI [8]: > 100 µM
- TGI [9]: > 100 µM
- TGI [10]: > 100 µM

SMILES: CC(=O)OC[C@H]1On2nnnc2[C@H](OC(C)=O)[C@@H](OC(C)=O)[C@@H]1OC(C)=O
- TGI [1]: > 100 µM
- TGI [2]: > 100 µM
- TGI [3]: > 100 µM
- TGI [4]: > 100 µM
- TGI [5]: > 100 µM
- TGI [6]: > 100 µM
- TGI [7]: > 100 µM
- TGI [8]: > 100 µM
- TGI [9]: > 100 µM
- TGI [10]: > 100 µM

SMILES: Cc1ncc(COP(=O)(O)O)c(/C=C2\SC(=S)NC2=O)c1O
- TGI [1]: > 100 µM
- TGI [2]: > 100 µM
- TGI [3]: > 100 µM
- TGI [4]: > 100 µM
- TGI [5]: > 100 µM
- TGI [6]: > 100 µM
- TGI [7]: > 100 µM
- TGI [8]: > 100 µM
- TGI [9]: > 100 µM
- TGI [10]: > 100 µM

SMILES: C=C1C(C)C2C(Cc3ccccc3)NC(=O)C23OC(=O)/C=C\CC(=O)CCC(C)C/C=C/C3C1O (stereo not drawn)
- TGI [1]: 5.32 µM
- TGI [2]: 20.9 µM
- TGI [3]: 1.42 µM
- TGI [4]: 18.5 µM
- TGI [5]: 16.7 µM
- GI50 [6]: 0.594 µM
- TGI [6]: 2.64 µM
- GI50 [7]: 0.366 µM
- TGI [7]: 0.931 µM and 2.52 µM
- TGI [8]: 3.89 µM
- TGI [9]: 5.18 µM
- GI50 [10]: 0.932 µM
- TGI [10]: 5.21 µM

SMILES: CCCCCCCCOc1ccc(/C=C/C2=[N+](CCO)CCO2)cc1
- TGI [1]: 11.7 µM
- TGI [2]: 10.7 µM
- TGI [3]: 7.91 µM
- TGI [4]: 11.9 µM
- TGI [5]: 12.3 µM
- TGI [6]: 9.2 µM
- TGI [7]: 6.25 µM
- TGI [8]: 12.4 µM
- TGI [9]: 12.2 µM
- TGI [10]: 5.02 µM

Source: PubChem BioAssay (NCI)
